Legend:
[1] = tested on: SAGPY (Arrowhead (Pygmaea)); test: Preemergence weed control under flooded paddy conditions; format: in vivo, Sagittaria pygmaea; conditions: rated 3-4 weeks after treatment
How it was run: (§1)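 Ratings on a 0-9 visual scale cover stand, vigor, malformation, size, chlorosis and overall appearance relative to a control, taken three to four weeks post-treatment. Application was into flood water over freshly sown silt loam at roughly 0.0313 to 0.500 kg/ha.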

ECHCG (Barnyardgrass) = test: Postemergence herbicidal evaluation; format: in vivo, Echinochloa crus-galli; conditions: postemergence
How it was run: (§2)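 Visual 0–9 rating versus control (stand, vigor, malformation, size, chlorosis, overall appearance), taken four to five weeks post-spray. Two-week-old seedlings received roughly 0.0156–0.500 kg/ha active in acetone/water (50/50) with 0.5% TWEEN 20 via nozzle at 40 psi.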

GALAP (Galium) = test: Preemergence herbicidal evaluation; format: in vivo, Galium aparine; conditions: rated 4-5 weeks after treatment
How it was run: (§3)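 Each species is sown separately in potting soil over roughly an inch of soil before any emergence. The soil surface then receives an aqueous acetone spray delivering about 0.0156 to 0.500 kg/ha of compound. After four to five weeks, injury is scored from 0 to 9 relative to a control.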

SETVI (Foxtail, Green) = test: Preemergence herbicidal evaluation; format: in vivo, Setaria viridis; conditions: rated 4-5 weeks after treatment
How it was run: as §3

[2] = tested on: TRZAWR (Wheat, Winter, cv Riband); test: Preemergence herbicidal evaluation; format: in vivo, Triticum aestivum; conditions: rated 4-5 weeks after treatment
How it was run: as §3

[3] = tested on: GLXMAW (Soybean, Williams); test: Preemergence herbicidal evaluation; format: in vivo, Glycine max, (L.) Merr. cv Williams; conditions: rated 4-5 weeks after treatment
How it was run: as §3

[4] = tested on: CHEAL (Lambsquarters, Common); test: Postemergence herbicidal evaluation; format: in vivo, Chenopodium album; conditions: postemergence
How it was run: as §2

CYPIR (Rice Flatsedge) = test: Preemergence weed control under flooded paddy conditions; format: in vivo, Cyperus iria; conditions: rated 3-4 weeks after treatment
How it was run: as §1

MOOVA (Monochoria) = test: as above; format: in vivo, Monochoria vaginalis; conditions: rated 3-4 weeks after treatment
How it was run: as §1

ORYSAT (Rice, Tebonnet) [5] = test: Postemergence herbicidal evaluation; format: in vivo, Oryza sativa, (L.) Tebonnet; conditions: postemergence
How it was run: as §2

CASOB (Sicklepod) = test: Postemergence herbicidal evaluation; format: in vivo, Cassia obtusifolia; conditions: postemergence
How it was run: as §2

ZEAMX (Corn, Field) = test: Preemergence herbicidal evaluation; format: in vivo, Zea mays; conditions: rated 4-5 weeks after treatment
How it was run: as §3

ORYSAT (Rice, Tebonnet) [6] = test: Preemergence herbicidal evaluation; format: in vivo, Oryza sativa, (L.) Tebonnet; conditions: rated 4-5 weeks after treatment
How it was run: as §3

CYPSE (Flatsedge) = test: Postemergence weed control under flooded paddy conditions; format: in vivo, Cyperus serotinus; conditions: postemergence weeds, rated 3 to 4 weeks after treatment
How it was run: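 Injury ratings (0–9 scale covering stand, vigor, malformation, size, chlorosis and overall appearance versus control) were made three to four weeks after treatment. Test material, about 0.0313 to 0.500 kg/ha a.i. in 50/50 v/v aqueous/acetone, was added to flood water 1.5 to 3 cm deep over 3 to 5 cm weeds and 1.5 to 2.5 leaf rice.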

Cn1c(C(F)(F)F)cc(=O)n(-c2cc(N=C3SCC(=O)N3CC(=O)OCC#N)c(Cl)cc2F)c1=O [Compound 109, 2-{{2-Chloro-5-[3,6-dihydro-3-methyl-2,6-dioxo-4-(trifluoromethyl)-1(2H)-pyrimidinyl]-4-fluorophenyl}imino}-4-oxo-3-thiazolidineacetic acid, ester with glycolonitrile]
0.0: herbicidal rating ECHCG (ECHCG (Barnyardgrass); rate 0.0158 kg/ha) | Preemergence herbicidal rating TRZAWR ([2]; rate 0.0156 kg/ha) | Preemergence herbicidal rating ORYSAT (ORYSAT (Rice, Tebonnet) [6]; rate 0.0156 kg/ha) | Herbicidal rating CYPSE (CYPSE (Flatsedge); Rate 0.0313 kg/ha) | Herbicidal rating CYPSE (CYPSE (Flatsedge); Rate 0.0625 kg/ha)
6.5: Preemergence herbicidal rating ZEAMX (ZEAMX (Corn, Field); rate 0.2500 kg/ha)
9.0: SAGPY herbicidal effect rating ([1]; 0.1250 kg/ha) | SAGPY herbicidal effect rating ([1]; 0.2500 kg/ha) | Preemergence herbicidal rating SETVI (SETVI (Foxtail, Green); rate 0.0625 kg/ha) | Preemergence herbicidal rating SETVI (SETVI (Foxtail, Green); rate 0.1250 kg/ha) | Preemergence herbicidal rating SETVI (SETVI (Foxtail, Green); rate 0.2500 kg/ha) | Preemergence herbicidal rating SETVI (SETVI (Foxtail, Green); rate 0.5000 kg/ha) | Preemergence herbicidal rating GLXMAW ([3]; rate 0.2500 kg/ha) | Preemergence herbicidal rating GLXMAW ([3]; rate 0.5000 kg/ha) | herbicidal rating CHEAL ([4]; rate 0.0158 kg/ha) | herbicidal rating CHEAL ([4]; rate 0.0315 kg/ha) | herbicidal rating CHEAL ([4]; rate 0.0630 kg/ha) | CYPIR herbicidal effect rating (CYPIR (Rice Flatsedge); 0.1250 kg/ha) | CYPIR herbicidal effect rating (CYPIR (Rice Flatsedge); 0.2500 kg/ha) | MOOVA herbicidal effect rating (MOOVA (Monochoria); 0.0625 kg/ha) | MOOVA herbicidal effect rating (MOOVA (Monochoria); 0.1250 kg/ha) | MOOVA herbicidal effect rating (MOOVA (Monochoria); 0.2500 kg/ha) | herbicidal rating CASOB (CASOB (Sicklepod); rate 0.0630 kg/ha)
5.5: Preemergence herbicidal rating SETVI (SETVI (Foxtail, Green); rate 0.0156 kg/ha)
5.0: Preemergence herbicidal rating GLXMAW ([3]; rate 0.0625 kg/ha) | CYPIR herbicidal effect rating (CYPIR (Rice Flatsedge); 0.0313 kg/ha) | herbicidal rating ORYSAT (ORYSAT (Rice, Tebonnet) [5]; rate 0.0630 kg/ha) | Preemergence herbicidal rating ORYSAT (ORYSAT (Rice, Tebonnet) [6]; rate 0.2500 kg/ha)
4.0: Preemergence herbicidal rating GALAP (GALAP (Galium); rate 0.1250 kg/ha) | Preemergence herbicidal rating GALAP (GALAP (Galium); rate 0.2500 kg/ha) | Preemergence herbicidal rating TRZAWR ([2]; rate 0.2500 kg/ha) | Preemergence herbicidal rating ZEAMX (ZEAMX (Corn, Field); rate 0.0625 kg/ha) | Preemergence herbicidal rating ORYSAT (ORYSAT (Rice, Tebonnet) [6]; rate 0.1250 kg/ha)
6.0: Preemergence herbicidal rating SETVI (SETVI (Foxtail, Green); rate 0.0313 kg/ha) | Preemergence herbicidal rating TRZAWR ([2]; rate 0.1250 kg/ha) | Preemergence herbicidal rating ZEAMX (ZEAMX (Corn, Field); rate 0.1250 kg/ha) | Preemergence herbicidal rating ORYSAT (ORYSAT (Rice, Tebonnet) [6]; rate 0.5000 kg/ha)
7.5: SAGPY herbicidal effect rating ([1]; 0.0625 kg/ha) | Preemergence herbicidal rating GLXMAW ([3]; rate 0.1250 kg/ha)
1.0: Preemergence herbicidal rating TRZAWR ([2]; rate 0.0313 kg/ha) | Preemergence herbicidal rating TRZAWR ([2]; rate 0.0625 kg/ha) | herbicidal rating CASOB (CASOB (Sicklepod); rate 0.0158 kg/ha) | Preemergence herbicidal rating ORYSAT (ORYSAT (Rice, Tebonnet) [6]; rate 0.0313 kg/ha)
4.5: SAGPY herbicidal effect rating ([1]; 0.0313 kg/ha) | herbicidal rating ORYSAT (ORYSAT (Rice, Tebonnet) [5]; rate 0.0315 kg/ha)
3.0: herbicidal rating ECHCG (ECHCG (Barnyardgrass); rate 0.0315 kg/ha) | herbicidal rating ECHCG (ECHCG (Barnyardgrass); rate 0.0630 kg/ha) | Preemergence herbicidal rating GALAP (GALAP (Galium); rate 0.0156 kg/ha) | Preemergence herbicidal rating GALAP (GALAP (Galium); rate 0.0313 kg/ha) | Preemergence herbicidal rating GALAP (GALAP (Galium); rate 0.0625 kg/ha) | herbicidal rating ORYSAT (ORYSAT (Rice, Tebonnet) [5]; rate 0.0158 kg/ha) | Preemergence herbicidal rating ZEAMX (ZEAMX (Corn, Field); rate 0.0156 kg/ha)
2.0: Preemergence herbicidal rating GLXMAW ([3]; rate 0.0313 kg/ha) | Preemergence herbicidal rating ORYSAT (ORYSAT (Rice, Tebonnet) [6]; rate 0.0625 kg/ha)
1.5: Preemergence herbicidal rating GLXMAW ([3]; rate 0.0156 kg/ha)
3.5: Preemergence herbicidal rating ZEAMX (ZEAMX (Corn, Field); rate 0.0313 kg/ha)
7.0: CYPIR herbicidal effect rating (CYPIR (Rice Flatsedge); 0.0625 kg/ha) | MOOVA herbicidal effect rating (MOOVA (Monochoria); 0.0313 kg/ha) | herbicidal rating CASOB (CASOB (Sicklepod); rate 0.0315 kg/ha) | Preemergence herbicidal rating ZEAMX (ZEAMX (Corn, Field); rate 0.5000 kg/ha) | Herbicidal rating CYPSE (CYPSE (Flatsedge); Rate 0.2500 kg/ha)

Source: patent publication US20020137929A1, “1 - (3-heterocyclylphenyl) isothiourea, -isourea, -guanidine and -amidine herbicidal agents” (Intellectual Property Department, BASF Aktiengesellschaft, priority 1998, published 2002)
